Results as given in US9644019B2, “Compounds for treating cardiac damage after ischaemia/reperfusion” (priority 2010, dated 2017).
No end group written: not given here.

Assays:
EMMPRIN mRNA [1] = experiment: EMMPRIN mRNA, quantitative real-time RT-PCR in HL1 cardiomyocytes; format: cell-based, mouse; settings: cardiomyocytes in culture, 100 μM DETA-NO
Experimental: (§1) (A) Quantitative real-time RT-PCR showing EMMPRIN expression in the hearts of wild-type and iNOS knockout animals after ischemia/reperfusion (n=3 in triplicate, mean±SD *p<0.05 vs iNOS null−). (B) Quantitative real-time RT-PCR showing EMMPRIN expression in HL1 cardiomyocytes in response to the exogenous administration of 100 μM DETA-NO (n=3, mean±SD *p<0.05). (C) Quantitative real-time RT-PCR showing EMMPRIN expression in RAW […] macrophages in culture in response to the exogenous administration of 100 μM of DETA-NO, endogenous NO production (50 μM LPS), or iNOS inhibition by means of adding 100 μM 1400W (n=3 mean±SD). (D) Stability assay of EMMPRIN mRNA in HL-1 cardiomyocytes (left) and in RAW […] macrophages (right) (n=3, mean±SD *p<0.05).
(§2) The HL1 cardiomyocyte cell line was donated by Dr. Antonio Bernad and cultured as described [Ruiz-Meana M et al. Cardiovascular research 2006; 71:715-724]. The RAW […] murine macrophage line was cultured as described [Tarin C et al. Arteriosclerosis, thrombosis, and vascular biology 2009; 29:27-32].

EMMPRIN mRNA [2] = experiment: EMMPRIN mRNA stability assay (actinomycin D) in HL-1 cardiomyocytes; format: cell-based, mouse; settings: cardiomyocyte cell line, over time
Experimental: (§3) For this assay, cells were incubated in wells […] in diameter and incubated in the presence of 10 μM of actinomycin D for 16 hours, after which time the cells were treated with diethylenetriamine-NO (DETA-NO) at different times. The RNA of the different experiment times was isolated and both for EMMPRIN and for GAPDH (as a control), their mRNAs were evaluated by means of quantitative real-time RT-PCR.

EMMPRIN mRNA [3] = experiment: EMMPRIN mRNA, quantitative real-time RT-PCR in RAW macrophages; format: cell-based, murine; settings: RAW macrophage cell line, 100 μM DETA-NO
Experimental: as §1, §2

EMMPRIN mRNA [4] = experiment: EMMPRIN mRNA stability assay (actinomycin D) in RAW macrophages; format: cell-based, murine
Experimental: as §3

EMMPRIN promoter = EMMPRIN promoter luciferase reporter (pEMMPRIN-WT), transient transfection of cardiomyocytes; format: cell-based, mouse; settings: for EMMPRIN promoter transcriptional activity: cardiomyocytes transiently transfected with pEMMPRIN-WT
Experimental: To clone the mouse EMMPRIN promoter, commercial chromosome BAC CH29-603O5 (which contains part of murine chromosome 10), from CHORI (Children's Hospital Oakland Research Institute) was used as a template in PCR reactions with the following oligonucleotides:
The resulting PCR fragment was cloned into the pGL3-Basic vector (Promega) at 5′ position to the luciferase reporter gene (hereinafter referred to as pEMMPRIN-WT).
The transient DNA transfection experiments were carried out by means of using the LIPOFECTAMINE (catatonic-lipid transfection reagent) 2000 reagent as previously described by the manufacturer. The luciferase content in the transfected cells was measured as previously described [Zaragoza C et al. Molecular pharmacology 2002; 62:927-935]. In summary, the cells were transiently transfected with 1 microgram of DNA and 10 μl of LIPOFECTAMINE (catatonic-lipid transfection reagent) 2000 in OPTIMEM culture medium (a modification of Eagle's Minimum Essential Media, buffered with HEPES and sodium bicarbonate, and supplemented with hypoxanthine, thymidine, sodium pyruvate, L-glutamine, trace elements, and growth factors) for 4 hours, after which time they were washed and incubated with fresh culture medium (MEM/10% FCS) for 16 hours. Furthermore, as a control, the cells were co-transfected with a plasmid containing the constitutively active promoter of cytomegalovirus fused with the R-Luciferase gene (Renilla), used as a control. Each sample was therefore evaluated for the content of both P-(firefly) and R-luciferase. […] of the gene product of the reporter gene of the co-transfected control plasmid. The results were normalized for R-Luciferase content.
To analyze in depth the repressive effect of NO on the EMMPRIN transcription, the first 1000 bps of the regulatory region of the EMMPRIN gene, fused to the luciferase reporter gene (pEMMPRIN-WT), were cloned.

iNOS = biological target: T1, iNOS (Mus musculus, UniProt P29477); experiment: Coronary ischemia/reperfusion with pharmacological iNOS inhibition in iNOS wild-type mice; format: in vivo
T1 construct: tissue The Jackson Laboratories (mice); host or cells: living wild-type mice; heart after coronary ischemia/reperfusion
T1 sequence (P29477 1-1144): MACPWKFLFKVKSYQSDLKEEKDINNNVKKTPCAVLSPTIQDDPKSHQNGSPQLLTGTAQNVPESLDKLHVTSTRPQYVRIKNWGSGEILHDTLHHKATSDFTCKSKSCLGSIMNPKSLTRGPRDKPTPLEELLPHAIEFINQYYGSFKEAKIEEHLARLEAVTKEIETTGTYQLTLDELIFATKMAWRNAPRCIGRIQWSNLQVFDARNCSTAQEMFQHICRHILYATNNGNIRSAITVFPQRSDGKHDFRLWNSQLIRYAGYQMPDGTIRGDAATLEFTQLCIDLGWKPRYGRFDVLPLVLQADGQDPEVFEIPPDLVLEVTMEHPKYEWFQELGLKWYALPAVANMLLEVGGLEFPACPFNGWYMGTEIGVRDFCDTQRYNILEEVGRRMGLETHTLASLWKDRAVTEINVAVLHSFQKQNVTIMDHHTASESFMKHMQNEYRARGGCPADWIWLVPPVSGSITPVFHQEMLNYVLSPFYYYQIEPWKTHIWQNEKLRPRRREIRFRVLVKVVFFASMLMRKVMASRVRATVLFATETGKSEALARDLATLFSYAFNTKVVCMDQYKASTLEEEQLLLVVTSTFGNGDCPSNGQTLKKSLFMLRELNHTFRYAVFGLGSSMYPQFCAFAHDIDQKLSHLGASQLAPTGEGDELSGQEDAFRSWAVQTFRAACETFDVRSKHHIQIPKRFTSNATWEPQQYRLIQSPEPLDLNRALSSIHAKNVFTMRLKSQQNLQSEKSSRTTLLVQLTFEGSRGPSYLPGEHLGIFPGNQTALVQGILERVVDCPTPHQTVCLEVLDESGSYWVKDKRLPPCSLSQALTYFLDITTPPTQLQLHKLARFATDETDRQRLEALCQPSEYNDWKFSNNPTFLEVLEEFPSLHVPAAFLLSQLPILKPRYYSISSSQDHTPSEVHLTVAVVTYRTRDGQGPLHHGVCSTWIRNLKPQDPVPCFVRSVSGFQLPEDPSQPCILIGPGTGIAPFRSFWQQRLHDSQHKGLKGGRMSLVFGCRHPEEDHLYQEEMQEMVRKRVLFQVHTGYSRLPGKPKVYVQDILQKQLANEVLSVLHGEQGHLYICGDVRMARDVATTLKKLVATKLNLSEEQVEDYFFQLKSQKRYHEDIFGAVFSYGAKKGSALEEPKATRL
Experimental: Ischemia was induced by means of the coronary artery ligation in the manner detailed below: twelve week old mice were anesthetized intraperitoneally by means of using ketamine/xylazine (100 mg/kg/10 mg/kg, respectively), intubated with a 1 mm steel tube, and ventilated (2 ml, 80 pulses/minute). After this process, the chest of the mice was opened between the second and third ribs, being kept open by means of the aid of a retractor for mice. The pericardium was then opened to subsequently temporarily ligate the left coronary artery in a region close to its branch by means of using a 6-0 silk suture and for a period of 30 minutes. Evidence of coronary occlusion was clearly shown by means of the discoloration of the left ventricle after the arterial ligation. After 30 minutes, the ligation is removed, the chest closed and the skin sutured. Additionally, a group of control animals (sham) were included in the assays, in which the same method was carried out with the exception of the coronary artery occlusion. To inhibit iNOS in vivo, the iNOS wild-type mice were injected in the tail vein with 2 mg/kg/day of the pharmacological inhibitor of iNOS, 1400W, 30 minutes before ischemia and 24 hours after ischemia/reperfusion. […] To evaluate the effect of anti-EMMPRIN on the ischemic process/reperfusion, the antibodies were administered intravenously for four days before the surgical procedure, after which time the infarct size, cardiac function and EMMPRIN and MMP-9 expression were evaluated.
The heart of the animals was included in paraffin to subsequently obtain sections 4 microns thick as previously described [Tarin et al. mentioned ad supra]. The morphology of the heart was viewed by means of staining with hematoxylin and eosin, whereas collagen deposition was monitored by means of Masson's trichrome staining. […]
Additionally, nitration was detected by means of using anti-3-Nitrotyrosine in sections isolated from those same animals, confirming that the exogenously supplied NO was present in the hearts of the animals treated during the time of the experiment (FIG. 2D, right).

[5] = test system: MAEC cells (mouse aortic endothelial cells); experiment: Internalization of AP-9 nanoparticles by MAEC cells and co-localization with EMMPRIN; format: cell-based; settings: for internalization into MAEC cells: overnight incubation
Experimental: The MAEC cells were incubated overnight with the AP-9 nanoparticles (NP-AP-9) (20 μg/ml) (right panel) or with non-loaded nanoparticles (NP-NT) (left panel). The MAEC cells were fixed, and EMMPRIN expression was detected using an anti-EMMPRIN antibody. Co-localization between the NP-AP-9 signal and the EMMPRIN signal was found in MAEC cells treated with NP-AP-9 (right panel), but this co-localization was not found in the control nanoparticles. The cores were stained with DAPI.
The MAEC cells were cultured in a black 96-well plate and incubated overnight with different concentrations of nanoparticles loaded with AP-9 (NP-AP9) or nanoparticles without AP-9 (NP-NT). Fluorescence was measured using an IVIS imaging system. The graph on the right represents the intensity of the fluorescence signal of the image on the left.
Nanoparticles containing AP-9 have therapeutic value, because EMMPRIN is inhibited and tissue damage due to proteolytic enzyme activation is reduced.

NCCN(CCN)/[N+]([O-])=N/O [DETA-NO, diethylenetriamine-NO]
EMMPRIN mRNA levels (EMMPRIN mRNA [1]): significantly reduced | EMMPRIN mRNA stability (EMMPRIN mRNA [2]): significant reduction | EMMPRIN gene expression (EMMPRIN mRNA [3]): did not induce a significant effect | EMMPRIN mRNA stability (EMMPRIN mRNA [4]): no effect whatsoever

O=c1c2nc(Br)n([C@@H]3O[C@@H]4CO[P@@](O)(=S)O[C@H]4[C@H]3O)c2nc2[nH]c(-c3ccccc3)cn12 [Rp-8-Br-PET-cGMPS]
EMMPRIN promoter transcriptional activity (EMMPRIN promoter): significant increase | EMMPRIN promoter activity in combination with NO (EMMPRIN promoter; cardiomyocytes, pEMMPRIN-WT, PET + NO (100 μM DETA-NO)): partially restoring the negative effect of NO

NCCCNCCCCN(CCCN)/[N+]([O-])=N/O [Spermine-NONOate]
EMMPRIN promoter transcriptional activity (EMMPRIN promoter): results similar to those generated with DETA-NO

CC(=N)NCc1cccc(CN)c1 [1400W]
infarct size (iNOS; 1400W 2 mg/kg/day tail vein, vs control mice): significantly increase | MMP-9 levels (iNOS; 1400W 2 mg/kg/day, WT 1400WC vs WT 1400W): increase | EMMPRIN levels (iNOS; 1400W 2 mg/kg/day, vs control mice): increase

CC(=O)NC(C(=O)O)C(C)(C)SN=O (racemic) [SNAP, S-Nitroso-N-acetyl-D,L-penicillamine]
EMMPRIN promoter transcriptional activity (EMMPRIN promoter): results similar to those generated with DETA-NO

Nc1nc2c(nc(Br)n2[C@@H]2O[C@@H]3COP(=O)(O)O[C@H]3[C@H]2O)c(=O)[nH]1 [8-Br-cGMP]
EMMPRIN promoter transcriptional activity (EMMPRIN promoter): same effect as the NO donor

NP-AP-9: nanoparticles with iron oxide core, single lipid-PEG layer with fluorochrome, and AP-9 peptide bound to the surface (YKLPGHHHHYRP; also: bound to surface of iron oxide nanoparticles with lipid-PEG layer and fluorochrome, attachment site not given here)
co-localization of nanoparticle signal with EMMPRIN signal ([5]; 20 μg/ml overnight): Co-localization | dose dependence of internalization (fluorescence signal) ([5]; 96-well plate, different concentrations overnight, IVIS imaging): dose-dependent manner | internalization into MAEC cells [5]: internalization | internalization into MAEC cells ([5]; listed as Nanoparticles containing AP-9): could be internalized
